Structure (SMILES) | melting point [°C]
Cc1nc(C)c(C(=O)OCC2CCCO2)c(-c2cccc([N+](=O)[O-])c2)c1C(=O)OCC1CCCO1 (configuration not stated) | 75 to 77
C(CCc1cncn1Cc1ccccc1)=C(c1ccccc1)c1ccccc1 | 161 to 168
CCN(CC)c1ccc(C(c2ccc(N(C)C)cc2)c2ccc(N(C)C)cc2)c(O)c1 | 94 to 95
O=C(c1ccc(F)cc1)c1cc(Cl)nnc1Cl | 71.1 to 72.6
CC(C)C[C@H](NC(=O)OCc1ccccc1)C(=O)N[C@@H](Cc1ccccc1)C(=O)CSCCCl | 77 to 80
COc1ccc(C(=O)C(=O)c2ccncc2)cc1OC1CCCC1 | 117 to 119
CC12CCC3c4ccc(OC(=O)c5ccccc5)cc4CCC3C1CCC2OC(=O)c1cccnc1 (configuration not stated) | 151 to 154
COc1ccc(N2CCN(Cc3nn(C(C)=O)c4cc(F)ccc34)CC2)cc1 | 94 to 95
CCc1cccc(CC(=O)O)c1OCCCc1cn(-c2ccc(C(F)(F)F)nn2)nc1C(CC)CC | 93 to 94
CS(=O)(=O)NNc1ccnc2c(NC(=O)c3c(Cl)cccc3Cl)cccc12 | 156 to 164
CCOC(=O)N[C@@H]1CCc2ccccc2[C@H]1Nc1ccccc1CO (relative stereo) | 134 to 135
C=CCN1CC(C)N(C(c2cccc(O)c2)c2ccc(C(=O)N(CC)CC)s2)CC1C (configuration not stated) | 113 to 116
CC(C)NC(=O)[C@H](C)C[C@H](O)[C@H](CC1CCCCC1)NC(=O)[C@H](Cc1cscn1)NC(=O)OC(C)(C)C | 185 to 187
CSc1ccc(CSc2cccc(C(=O)Nc3ccc(C#N)cn3)c2)cc1 | 161 to 162
O=S1(=O)NCN(C2CC2)c2c(C(F)(F)F)cccc21 | 165 to 167
CCCCCCCC(=O)c1ccc(CCC(CC)(COC(C)=O)NC(C)=O)cc1 (configuration not stated) | 75 to 76
COc1ccc2ccc(-c3ccccc3)cc2c1 | 65.4 to 66.3
O=C1C(Cc2ccccc2)CCCCCC1Cc1ccccc1 (configuration not stated) | 66 to 68
O=C(O)C1CC(=O)N(Cc2ccccc2)C1C(=O)N(Cc1ccccc1)Cc1ccccc1 (configuration not stated) | 123 to 125
COc1ccc(C(=O)c2cccc(CC(=O)O)c2)cc1 | 138 to 140
Cc1cccc2cc3c(=O)n(CC(F)(F)F)cc(C(=O)NCCN(C)C)c3nc12 | 227 to 230
CCOc1cc(OC)ccc1C(CC(=O)Nc1cc(C(N)=O)ccc1C(C)(C)C)CC(C)C (configuration not stated) | 216 to 217
Cc1[nH]c(=O)ccc1-c1cccc(O)c1 | 285 to 288
CS(=O)(=O)OC1CCc2ccccc2C1 (configuration not stated) | 60 to 62
O=C1NC(=O)C(Nc2ccc(CCNCC(O)COc3cccc4ccccc34)cc2)S1 (configuration not stated) | 61 to 62

Structure (SMILES) | melting point [°C]
CCCCC(=N)NC(=O)Nc1ccc(C)cc1 | 159 to 160
CS(=O)(=O)Nc1cc(C(F)(F)F)ccc1-c1cc(Oc2ccc3cccnc3c2)ncn1 | 203 to 204
CCCCc1ncc(/C=C(\Cc2cccs2)C(=O)O)n1Cc1ccc(C(=O)O)cc1Cl | 234 to 236
O=C(O)CSCc1ccc([N+](=O)[O-])cc1 | 101 to 104
O=C(O)c1cccc([N+](=O)[O-])c1Nc1ccccc1Cl | 213 to 215
CNC(=O)c1cc2ccccc2c(-c2ccc(I)cc2)n1 | 163 to 164
CC(c1ccc(-c2ccccc2Cl)cc1)S(=O)CC(=O)O (configuration not stated) | 144 to 147
O=C(CBr)Nc1c(C(F)(F)F)cc(OCc2ccccc2)cc1C(F)(F)F | 173 to 175
Cc1cc(C)cc(NCc2ccc3nc(NC4CCN(CCS(N)(=O)=O)CC4)n(Cc4nc(C)ccc4O)c3c2)c1 | 142
CC(C)c1ccc(C(=O)c2ccc([N+](=O)[O-])cc2)cc1 | 95
COCCSc1ccccc1S(N)(=O)=O | 127 to 130
COc1ccc(Cc2cc3cccc(-c4cccc(C(=O)O)c4)c3o2)cc1OC | 122 to 123
COc1ccc(-n2nc(Sc3cc(OC)cc(OC)c3)c(C)c(C#N)c2=O)cc1 | 181 to 184
CCc1ccc(N2CCN(c3c(C)c4c(c(OC)c3C)OC(C)(C)C4)CC2)cc1 | 157 to 160
O=C1NCCN(Cc2ccc(Cl)cc2)C1c1ccccc1 (configuration not stated) | 103 to 104
CCCn1c(=O)c2[nH]c(-c3cc(C)n(CC(=O)Nc4ccc(Cl)cc4)n3)nc2n(CCC)c1=O | 261 to 265
CCCN1CCCC(c2cccc(O)c2)C1=O (configuration not stated) | 61 to 63
C[C@@H]1OCc2cc3c(nc21)N1[C@H](C3)CN(C(=O)OC(C)(C)C)C[C@H]1C | 143 to 144
O=C1Nc2ccc(Oc3ccccc3)cc2SC(c2ccc3c(c2)OCO3)C1O (configuration not stated) | 228 to 230
CCN/C(=C1\C(=O)c2ccccc2S1=O)c1ccccc1 (configuration not stated) | 183 to 185
Oc1cc(Cl)c(N2CCOCC2)cc1Oc1ccc(Cl)cc1Cl | 187 to 188
Clc1ccc(-c2cc(C3CCN(CCCc4ccccc4)CC3)n[nH]2)cc1 | 165 to 167
CC(C)c1ccc(N(Cc2ccc(N(C)C)cc2)C(=O)C2CCOc3ccc(F)cc32)cc1 (configuration not stated) | 95 to 98
CCCCCCCCc1c(N)nc(-n2cccn2)nc1CC | 62 to 63
COc1cc2c(Nc3ccc(Cl)cc3F)ncnc2cc1OCCN1CCN(C)CC1 | 173 to 175

Structure (SMILES) | melting point [°C]
O=C(NCc1ccc(Cl)cc1)n1cc(Br)cnc1=O | 158 to 160
CC1CN(C(=O)Nc2ccc(Cl)cc2)N=C1c1ccc(Cl)cc1 (configuration not stated) | 139 to 140
CCOC(Nc1ccccc1)(OCC)c1ccnc(C(=O)c2ccc(Cl)c(Cl)c2)c1 | 113 to 114
CCOC(=O)c1ccc(C(=O)Nc2ccc3c(c2)CCC(C)(C)C(=O)N3C)cc1 | 183 to 184
COC(=O)C=CC(C)C1=CCC2C3CC=C4CC(OC(C)=O)CCC4(C)C3CCC12C (configuration not stated) | 121 to 122
COc1ccc(N2CCN(c3c(C)c(C)c4c(c3C)C(c3ccoc3)C(C)(C)O4)CC2)cc1 (configuration not stated) | 110 to 113
O=C(Nc1ccc2c(c1)OC=C1CN(C(=O)OCc3ccccc3)C=CN12)OCc1ccccc1 | 118 to 120
O=C1N(c2cc(Cl)nc(Cl)c2)C(=O)C2(Cc3ccc(O)cc3)CCCN12 (configuration not stated) | 165
O=C(NC(Cc1ccccc1F)C(=O)N1CCSC1)c1cc2cc(Cl)ccc2[nH]1 (configuration not stated) | 216 to 217
CNC(=NC#N)NCCSCc1csc(NC(N)=NC(=O)c2ccccc2)n1 | 179 to 181
COc1ccccc1N1CCN(CC(O)COc2cccc(C(=O)C=CN(C)C)c2)CC1 (configuration not stated) | 131
Cc1ccc2c(c1)[nH]c(=O)n2CCO | 159
CC1=CCc2cccc(OCC3CN(C(C)C)CCO3)c21 (configuration not stated) | 114 to 116
CCOC(=O)C(C)NC(=O)N(C)N (configuration not stated) | 77 to 79.5
CC(=O)NC(=CC(=O)[C@H](Cc1ccccc1)N(Cc1ccccc1)Cc1ccccc1)Cc1ccccc1 | 95 to 96
CS(=O)(=O)c1ccc(C(CC2CCCC2)C(=O)Nc2nccs2)cc1 (configuration not stated) | 61 to 63
CC(=O)Oc1ccc2c(c1)COc1c-2cc(Br)c2cc(OC(C)=O)ccc12 | 192 to 194
O=C1C2C=CCCC2C(=O)N1CCO (configuration not stated) | 48 to 51
Cc1cc2c(cc1C(F)(F)F)N(Cc1ccc(C(=O)O)cc1)CCC[C@@H]2N(Cc1cc(C(F)(F)F)cc(C(F)(F)F)c1)c1nnn(C)n1 | 95 to 98
O=[N+]([O-])c1c(Br)nn(CCO)c1NCCO | 132 to 134
Cc1cc(C)c2nnn(C(=O)N3CCOCC3)c2c1 | 115
O=C(Cn1c(-c2ccc(Cl)cc2)nc2cccnc21)Nc1ccccn1 | 190 to 191
CC1(C)CC(C(O)CNc2nc(NCC(O)C3CC(C)(C)NC(C)(C)C3)nc(NCC(O)C3CC(C)(C)NC(C)(C)C3)n2)CC(C)(C)N1 (configuration not stated) | 176 to 178
CC(C)OC(=O)CCC(=O)c1ccc(-c2ccccc2F)cc1 | 65 to 66
CC(C)c1csc(/C=C/c2cccc(OCCC(C)(C)C(=O)O)c2)n1 | 112 to 113

Structure (SMILES) | melting point [°C]
O=CNC1=NN(c2cccc(Cl)c2)CC1 | 143 to 145
COC(=O)CCc1cnoc1-c1ccc(Cl)s1 | 34 to 35
O=C(O)Cc1cccc2c(=O)cc(-c3c(F)c(F)c(F)c(F)c3F)oc12 | 156 to 160
COc1cc(-c2cn(C3CCCC3)c3ncnc(N)c23)ccc1NS(=O)(=O)c1ccccc1 | 113 to 115
COC(C)=C(C(=O)OC(c1ccccc1)c1ccccc1)N1C(=O)C(NC(=O)C(NC(=O)OC(C)(C)C)c2ccccc2)C1SS(=O)(=O)c1ccc(C)cc1 (configuration not stated) | 204 to 206
CC(CO)CCCC(C)C1CC=C2C3=C(CCC21C)C1(C)CCC(O)C(C)(C)C1CC3 (configuration not stated) | 180 to 181
N#Cc1ccc(O)cc1C(N)=O | 268 to 270
O=C(NCC(=O)c1ccco1)c1ccc(F)cc1 | 153 to 155
Cn1cc(CS(C)(=O)=O)c(=O)c2sccc21 | 220 to 223
CNC(=O)c1cc(N(C)C)ccc1Nc1nc(Nc2cc3c(cc2OC)CCN(CC(=O)N(C)C)CC3)ncc1Cl | 96 to 110
CC(=O)NC1(c2ccccc2)CC1 | 94 to 95
CC(=O)NC[C@H]1CN(c2ccc(C(=O)c3cnc4ncccn34)cc2)C(=O)O1 | 257 to 260
O=C1CC(=O)N(c2ccccc2)c2ccccc2N1NCCC1C2CC3CC(C2)CC1C3 (configuration not stated) | 196 to 197
CCP(=O)(O)CC(=O)CN | 189 to 192
O=[N+]([O-])c1ccccc1C(=C(Br)Br)c1ccc(F)cc1 | 99 to 100
COC(=O)c1ccc(O)c(C(=O)CC(=O)c2cc(C)ccc2OC)c1 | 145 to 147
CCOc1nn(-c2ccc(C(F)(F)F)cc2)cc1CCCOc1ccccc1CC(=O)O | 114 to 115
O=[N+]([O-])C=C1SCCCN1Cc1cccnc1 | 143 to 146
CCc1c(C)sc(NC(=O)OC(C)(C)C)c1C(=O)O | 196 to 197
CCCCC(CC)COC(=O)C(=Cc1ccc(-c2nc3ccccc3o2)cc1)C(=O)CC (configuration not stated) | 82 to 83
CN1CCC(c2c[nH]c3ccc(NC(=O)c4ccccc4F)nc23)CC1 | 125 to 126
O=C(NCc1ccccc1)c1ccccc1-c1ccccc1CNS(=O)(=O)c1cccc(C(F)(F)F)c1 | 126

From a melting point compilation (Tetko et al.; mined from patent text by program, amines drawn as free bases though some values may be those of a salt)
